In assay [1] the test system is human hematopoietic stem cells (CD34+). The assay is described as follows: HbF induction and red cell maturation in CD34+ hematopoietic stem cells differentiated to red cells over 18 days (HbF by HPLC). It counts as cell-based. The settings on record: for concentration that inhibits/arrests red cell maturation: co-culture from Day 7, harvest Day 18; for concentration that induces HbF: co-culture from Day 7, harvest Day 18, total HbF by HPLC. On the procedure: In an in vitro assay system, human hematopoietic stem cells (CD34^+) from a single donor are cultured to differentiate into red cells over the course of 18 days using standard culture methods with eythrogenic growth factors. Three test articles were co-cultured beginning on Day 7: the compound described in Example 11SS, a reversible inhibitor of LSD1; 4-(2-(4-aminopiperidin-1-yl)-5-(4-methoxyphenyl)-1-methyl-6-oxo-1,6-dihydropyrimidin-4-yl)-2-fluorobenzonitrile, a potent reversible inhibitor of LSD1; and 2-(((trans)-2-(4-(benzyloxy)phenyl)cyclopropyl)amino)-1-(4-methylpiperazin-1-yl) ethanone dihydrochloride (RN-1), a commercially available potent […] inhibitor of LSD1. Cells were harvested at Day 18 and total HbF was assayed by HPLC, e.g., using a C20 reverse phase column. 4-(2-(4-aminopiperidin-1-yl)-5-(4-methoxyphenyl)-1-methyl-6-oxo-1,6-dihydropyrimidin-4-yl)-2-fluorobenzonitrile and RN-1 both induce HbF at 3 nM but inhibit red cell maturation at 10 nM.

For another assay, the system named is MV4;11 cells. The assay is described as follows: Cell Titer-Glo cell growth inhibition in MV4;11 cell line (Day 5 / Day 10). It counts as cell-based. The gist of the method:
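Cells seeded at 3750/well and treated with a 10-point, 4-fold dose curve from 0 to 50 µM; ATP-based luminescence viability read at Day 5. A portion is reseeded into fresh compound and media for 5 more days, read at Day 10; IC50 derived from luminescence.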
Background: ATP-based viability assays read luminescence as a measure of living cells.

The next assay has as its target LSD1 (Homo sapiens, UniProt O60341). The assay is described as follows: LSD1 fluorescence coupling enzyme assay (HRP/Amplex Red, H3(1-21)K4me2 peptide), 10-dose IC50. The settings on record: 10 μM histone H3(1-21)K4me2 peptide substrate, 3-fold serial dilution from 100 μM. It counts as biochemical. The method in brief:
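Fluorescence coupled assay: LSD1 demethylation of 10 μM H3(1-21)K4me2 peptide produces FAD-dependent H2O2, detected via HRP/Amplex Red as resorufin (Ex/Em 535/590 nm). IC50 from 10 doses, 3-fold serial dilution from 100 μM, in duplicate.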

[2] abbreviates: Homo sapiens, MV4-11, 120 h, Day 5, read-out: Cell Titer-Glo IC50 (5 d).
[3] abbreviates: Homo sapiens, MV4-11, 240 h, Day 10, read-out: Cell Titer-Glo IC50 (10 d).
[4] abbreviates: Day 5, read-out: Cell Titer-Glo IC50 (5 d).

Like-named read-outs stand apart in the source and are kept apart here.

The term IC50 denotes the concentration that inhibits the measured activity by half.

Turning to `CN1CCN(C(=O)CN[C@@H]2C[C@H]2c2ccc(OCc3ccccc3)cc2)CC1.Cl.Cl` (relative stereo) [RN-1, 2-(((trans)-2-(4-(benzyloxy)phenyl)cyclopropyl)amino)-1-(4-methylpiperazin-1-yl) ethanone dihydrochloride, reference compound], in assay [1], the “concentration that inhibits/arrests red cell maturation” value was 10 nM and the “concentration that induces HbF” value is on record as 3 nM.

In the case of `COc1ccc(-c2c(-c3ccc(C#N)c(F)c3)nc(N3CCC(N)CC3)n(C)c2=O)cc1` [4-(2-(4-aminopiperidin-1-yl)-5-(4-methoxyphenyl)-1-methyl-6-oxo-1,6-dihydropyrimidin-4-yl)-2-fluorobenzonitrile], in assay [1], the “concentration that inhibits/arrests red cell maturation” value is on record as 10 nM and the “concentration that induces HbF” value is 3 nM.

Regarding `COc1ccc(-n2nc(NC[C@H]3CCC[C@H](N)C3)cc2-c2ccc(C#N)c(F)c2)cc1` [Example 11SS, 4-(3-((((1S,3S)-3-aminocyclohexyl)methyl)amino)-1-(4-methoxyphenyl)-1H-pyrazol-5-yl)-2-fluorobenzonitrile], the “concentration that inhibits/arrests red cell maturation” value in assay [1] was 300 nM. In addition, the “concentration that induces HbF” value in assay [1] is on record as “a higher concentration”. Besides, the IC50 is 0.5 to 1 µM in the assay with MV4;11 cells (setting [2]), less than 0.5 µM with MV4;11 cells (setting [3]) and less than 0.5 µM against LSD1.

As for `CC(C)n1cc2cc(-n3nc(NC[C@@H]4CCC[C@@H](N)C4)cc3-c3ccc(C#N)c(F)c3)ccc2n1` [Example 72, 4-(3-((((1R,3R)-3-aminocyclohexyl)methyl)amino)-1-(2-isopropyl-2H-indazol-5-yl)-1H-pyrazol-5-yl)-2-fluorobenzonitrile], the IC50 is 0.5 to 1 µM in the assay on MV4;11 cells (setting [2]), less than 0.5 µM with MV4;11 cells (setting [3]) and 1 to 10 µM against LSD1.

On to `CC(C)n1ncc2cc(-n3nc(NC[C@@H]4CCC[C@@H](N)C4)cc3-c3ccc(C#N)c(F)c3)ccc21` [Example 73, 4-(3-((((1R,3R)-3-aminocyclohexyl)methyl)amino)-1-(1-isopropyl-1H-indazol-5-yl)-1H-pyrazol-5-yl)-2-fluorobenzonitrile], for which the IC50 is 0.5 to 1 µM with MV4;11 cells (setting [2]), less than 0.5 µM in the assay on MV4;11 cells (setting [3]) and less than 0.5 µM against LSD1.

Take `Cn1nnc2ccc(-n3nc(NC[C@H]4CCC[C@H](N)C4)cc3-c3ccc(C#N)c(F)c3)cc21` [Example 74, 4-(3-((((15,3S)-3-aminocyclohexyl)methyl)amino)-1-(1-methyl-1H-benzo[d][1,2,3]triazol-6-yl)-1H-pyrazol-5-yl)-2-fluorobenzonitrile]: the IC50 in the assay on MV4;11 cells (setting [2]) was 1 to 10 µM; in the assay with MV4;11 cells (setting [3]) it was less than 0.5 µM; on LSD1, 1 to 10 µM.

With `N#Cc1ccc(-c2cc(NC[C@@H]3CCC[C@@H](N)C3)nn2-c2ccc3c(cnn3-c3ccncc3)c2)cc1F` [Example 76, 4-(3-((((1R,3R)-3-aminocyclohexyl)methyl)amino)-1-(1-(pyridin-4-yl)-1H-indazol-5-yl)-1H-pyrazol-5-yl)-2-fluorobenzonitrile], the IC50 in the assay on MV4;11 cells (setting [2]) is 0.5 to 1 µM; in the assay on MV4;11 cells (setting [3]), less than 0.5 µM; on LSD1 it was less than 0.5 µM.

On to `COc1ccc(-n2nc(NC[C@H]3CCC[C@@H](CN)C3)cc2-c2ccc(C#N)c(F)c2)cc1` [Example 77, 4-(3-((((1S,3R)-3-(aminomethyl)cyclohexyl)methyl)amino)-1-(4-methoxyphenyl)-1H-pyrazol-5-yl)-2-fluorobenzonitrile], for which the IC50 in the assay with MV4;11 cells (setting [2]), with MV4;11 cells (setting [3]) and at LSD1 was 1 to 10 µM each time.

For `COc1ccc(-n2nc(NC[C@@H]3CCC[C@@H](CN)C3)cc2-c2ccc(C#N)c(F)c2)cc1` [Example 78, 4-(3-((((1R,3R)-3-(aminomethyl)cyclohexyl)methyl)amino)-1-(4-methoxyphenyl)-1H-pyrazol-5-yl)-2-fluorobenzonitrile], the IC50 is 1 to 10 µM in the assay on MV4;11 cells (setting [2]), 1 to 10 µM in the assay on MV4;11 cells (setting [3]) and less than 0.5 µM at LSD1.

Regarding `COc1ccc(-n2nc(N3CCCC4CCCCC43)cc2-c2ccc(C#N)c(F)c2)cc1` (stereo not drawn) [Example 82, 2-fluoro-4-(1-(4-methoxyphenyl)-3-(octahydroquinolin-1(2H)-yl)-1H-pyrazol-5-yl)benzonitrile], the IC50 in the assay on MV4;11 cells (setting [3]) was greater than 10 µM; on LSD1 it was 1 to 10 µM.

Regarding “(R)-4-(3-(3-aminopiperidin-1-yl)-1-(p-tolyl)-1H-pyrazol-5-yl)-2-fluorobenzonitrile/(R)-4-(5-(3-aminopiperidin-1-yl)-1-(p-tolyl)-1H-pyrazol-3-yl)-2-fluorobenzonitrile [Example 38]”, the values for the IC50 with MV4;11 cells (setting [4]) and at LSD1 were 1 to 10 µM and less than 0.5 µM, respectively.

Take “(S)-4-(3-(3-aminopiperidin-1-yl)-1-(p-tolyl)-1H-pyrazol-5-yl)-2-fluorobenzonitrile/(S)-4-(5-(3-aminopiperidin-1-yl)-1-(p-tolyl)-1H-pyrazol-3-yl)-2-fluorobenzonitrile [Example 39]”: the IC50 with MV4;11 cells (setting [4]) was 1 to 10 µM; at LSD1, less than 0.5 µM.

Source of the values: patent US20250032454A1, “KDM1A INHIBITORS FOR THE TREATMENT OF DISEASE” (Imago Biosciences, Inc., priority 2021, published 2025).
